Experimental data taken from patent US10960005B2, “Treatment of relapsed and/or refractory solid tumors and non-hodgkin's lymphomas” (CELGENE QUANTICEL RESEARCH, INC., priority 2016, dated 2021).
Read-outs that look alike come from different tables or passages of the source.

Columns and labels:
[1] = tested on: LXFS 573 SCLC patient-derived xenograft; assay type: in vivo
[2] = tested on: NCI-H1417 SCLC xenograft; assay type: in vivo
[3] = Etoposide at 24 mg/kg/day SC days 1-3 + Vehicle
[4] = etoposide monotherapy 24 mg/kg SC
[5] = etoposide monotherapy 24 mg/kg SC QD×3

SMILES: COc1cc([C@@H]2c3cc4c(cc3[C@@H](O[C@@H]3O[C@@H]5CO[C@@H](C)O[C@H]5[C@H](O)[C@H]3O)[C@H]3COC(=O)[C@H]23)OCO4)cc(OC)c1O [Etoposide, etoposide, reference compound]
- % TGD [1, 3]: 50%
- T-C [1, 3]: 21 days
- median TTE [1, 3]: 63 days
- SS (number of study survivors) ([1]; Etoposide at 24 mg/kg/day SC days 1-3 + Vehicle, Day 133, N=8): 0 (na)
- % TGD [1, 4]: 50%
- TGD [1, 4]: 21 days
- % TGD ([2]; 24 mg/kg Etoposide SC QD × 3): 92%
- T-C ([2]; 24 mg/kg Etoposide SC QD × 3): 24 days
- median TTE ([2]; 24 mg/kg Etoposide SC QD × 3): 50 days
- % TGD [2, 5]: 92%
- TGD [2, 5]: 24 days
